In patent publication US20050228016A1, “TETRAHYDROQUINOLINES FOR MODULATING THE EXPRESSION OF EXOGENOUS GENES VIA AN ECDYSONE RECEPTOR COMPLEX” (priority 2002, published 2005):

Experiments:
Gal4DBD/AaEcR (DEF) = molecular target: T1, Gal4DBD/AaEcR (DEF) (Aedes aegypti, UniProt P49880); test: cell-based; format: cell-based; conditions: 33 μM; 3T3 cells; 48 h; average of two wells
T1 construct: The wildtype D, E, and F domains from mosquito Aedes aegypti EcR; expressed in transfected cells; host or cells: 3T3 cells
T1 sequence (P28704 286-520 A311G/G315S/G445S/I449V): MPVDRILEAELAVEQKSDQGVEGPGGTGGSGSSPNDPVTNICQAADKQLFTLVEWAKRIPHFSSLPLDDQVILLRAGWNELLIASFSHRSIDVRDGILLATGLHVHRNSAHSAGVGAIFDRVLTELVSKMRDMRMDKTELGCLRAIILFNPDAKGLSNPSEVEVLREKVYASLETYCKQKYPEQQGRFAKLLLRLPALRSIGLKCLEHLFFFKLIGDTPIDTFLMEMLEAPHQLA
T1 sequence (P49880 405-776): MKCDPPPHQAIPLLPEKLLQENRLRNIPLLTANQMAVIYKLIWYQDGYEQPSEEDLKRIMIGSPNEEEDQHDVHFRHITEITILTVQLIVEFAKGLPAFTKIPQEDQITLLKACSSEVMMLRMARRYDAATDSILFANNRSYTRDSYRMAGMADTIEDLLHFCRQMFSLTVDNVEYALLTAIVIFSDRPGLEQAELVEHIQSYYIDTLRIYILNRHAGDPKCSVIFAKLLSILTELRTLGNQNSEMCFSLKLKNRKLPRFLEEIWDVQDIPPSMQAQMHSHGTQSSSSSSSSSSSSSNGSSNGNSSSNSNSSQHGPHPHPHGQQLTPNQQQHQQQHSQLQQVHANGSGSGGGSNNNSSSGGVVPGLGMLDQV
How it was run: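 Mouse 3T3 cells transiently co-transfected with Gal4DBD/AaEcR (DEF) and pFRLuc (5× GAL4 response element, firefly luciferase reporter). Ligand added in serum medium 4 h after transfection; single-dose testing at 33 μM.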

DmEcR + LmUSP = molecular target: T2, DmEcR + LmUSP (Drosophila melanogaster, UniProt P34021); conditions: DmEcR + LmUSP in 3T3 cells, reporter assayed 48 h after ligand
T2 sequence (P34021 342-878): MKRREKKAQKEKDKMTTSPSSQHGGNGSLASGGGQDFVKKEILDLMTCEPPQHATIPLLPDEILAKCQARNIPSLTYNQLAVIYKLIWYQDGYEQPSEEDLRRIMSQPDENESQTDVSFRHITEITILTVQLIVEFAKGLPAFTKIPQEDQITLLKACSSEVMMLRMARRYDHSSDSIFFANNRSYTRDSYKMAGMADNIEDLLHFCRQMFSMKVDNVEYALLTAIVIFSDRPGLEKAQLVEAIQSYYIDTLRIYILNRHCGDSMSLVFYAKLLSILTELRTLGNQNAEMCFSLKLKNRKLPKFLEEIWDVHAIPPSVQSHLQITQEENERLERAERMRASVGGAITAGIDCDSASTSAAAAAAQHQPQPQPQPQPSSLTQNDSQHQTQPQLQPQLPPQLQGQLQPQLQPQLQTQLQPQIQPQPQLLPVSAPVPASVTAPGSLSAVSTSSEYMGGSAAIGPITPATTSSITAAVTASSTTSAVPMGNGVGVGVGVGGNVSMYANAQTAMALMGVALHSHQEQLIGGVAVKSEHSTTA
Method: (§1) To determine if any of the compounds shown in Table 1 and Table 2 can act as inducers of reporter gene activity in a transactivation assay, these compounds were tested in NIH3T3 cells transfected with pFRLUC reporter and gene expression cassettes, 1.1 to 1.8 described in Example 1. […] At 48 hr after adding ligand, the cells were harvested and reporter activity was assayed using Dual Luciferase assay kit (Promega carporation). Total relative light units (RLU) are shown. Standard methods for culture and maintenance of the cells were followed.
(§2) Transfections: DNAs corresponding to the various switch constructs outlined in Example I, specifically switches 1.1 through 1.8, were transfected into mouse NIH3T3 cells (ATCC) as follows. Cells were harvested when they reached 50% confluency and plated in 6-, 12- or 24-well plates at 125,000, 50,000, or 25,000 cells, respectively, in 2.5, 1.0, or 0.5 ml of growth medium containing 10% fetal bovine serum (FBS), respectively. The next day, the cells were rinsed with growth medium and transfected for four hours. […] For 12-well plates, 4 μl of Superfect™ was mixed with 100 μl of growth medium. 1.0 μg of reporter construct and 0.25 μg of each receptor construct of the receptor pair to be analyzed were added to the transfection mix. A second reporter construct was added [pTKRL (Promega), 0.1 μg/transfection mix] that comprises a Renilla luciferase gene operably linked and placed under the control of a thymidine kinase (TK) constitutive promoter and was used for normalization. The contents of the transfection mix were mixed in a vortex mixer and let stand at room temperature for 30 min. At the end of incubation, the transfection mix was added to the cells maintained in 400 μl growth medium. The cells were maintained at 37° C. and 5% CO2 for four hours. At the end of incubation, 500 μl of growth medium containing 20% FBS and either dimethylsulfoxide (DMSO; control) or a DMSO solution of 0.1, 1, and 10 μM ligand was added and the cells were maintained at 37° C. and 5% CO2 for 48 hours. The cells were harvested and reporter activity was assayed. The same procedure was followed for 6 and 24 well plates as well except all the reagents were doubled for 6 well plates and reduced to half for 24-well plates.
(§3) Ligands: All ligands were dissolved in DMSO and the final concentration of DMSO was maintained at 0.1% in both controls and treatments.
(§4) Reporter Assays: Cells were harvested 48 hours after adding ligands. 125, 250, or 500 μl of passive lysis buffer (part of Dual-luciferase™ reporter assay system from Promega Corporation) were added to each well of 24- or 12- or 6-well plates respectively. The plates were placed on a rotary shaker for 15 minutes. Twenty μl of lysate were assayed. Luciferase activity was measured using Dual-luciferase™ reporter assay system from Promega Corporation following the manufacturer's instructions.

CfEcR + LmUSP = CfEcR + LmUSP in 3T3 cells, reporter assayed 48 h after ligand
Method: 1.9—Gal4CfEcR-DEF/VP16LmRXR-EF: This construct was prepared in the same way as switch 1.1 except LmRXR-EF (SEQ ID NO: 18) was used in place of HsRXRβ-LmRXREF chimera.
as §1, §2, §3, §4

C[C@H]1C[C@H](Nc2ccc(F)cc2)c2cc(F)ccc2N1C(=O)c1ccc(F)c(C(F)(F)F)c1 (relative stereo) [Compound I-5]
Fold Induction Average, AA_3T3V1 Assay 33 μM (Gal4DBD/AaEcR (DEF)): 366 fold
Fold Induction (10 μM) (DmEcR + LmUSP; 10 μM): 8 fold
Fold Induction (100 μM) (DmEcR + LmUSP; 100 μM): 7 fold
Fold Induction (10 μM) (CfEcR + LmUSP): 69 fold
